Results on 1 compound are retold here after publication PMC8113020 (Chemistry of Heterocyclic Compounds, 2021).

Structures are written as SMILES.

The subject of this assay is Coxsackie B3 virus (strain Nancy). In words: microbe, parasite or virus in culture. The conditions noted are these: Enterovirus B, B3, Vero, 48 h, read-out: IC50 (50% inhibitory concentration). In kind it is cell-based.

Take `NC(=O)c1ncn([C@@H]2O[C@H](CO)[C@@H](O)[C@H]2O)n1` [Ribavirin]: the IC50 came out at 56 ± 8 µM.
